For this experiment, the system named is MC38 mouse colon cancer cells. The experiment can be described thus: Tumor suppressive efficacy in combination with other TLR ligands or saponin, colon cancer mouse model. To be noted: L-pampo 45 μg/dose, QS21 10 μg/dose, Imiquimod 10 μg/dose, intratumoral four times at 3-day intervals, D20, 12 days after start. It counts as in vivo, C57BL/6 mice. As for the experimental part: Tumors were generated in mice by subcutaneous injection of 1×10^5 MC38 mouse colon cancer cells into the right flank of 8-week-old female C57BL/6 mice (OrientBio, Korea). The immuno-oncology drug L-pampo was prepared by mixing 25 μg of Pam3CSK4 and 20 μg of poly(I:C). […] This was administered into the tumor four times at 3-day intervals. Tumor sizes for all experimental groups were measured every three days. The long and short axes of the tumor were measured, and the size of the tumor was calculated as [½×size of the long axis×(size of the short axis)^2]. The tumor suppressive efficacy was analyzed based on the calculated tumor size.

Regarding QS-21, the “size of the tumor reduced compared to negative control (buffer)” value is “about 57%”.

Consider `CC(C)Cn1cnc2c(N)nc3ccccc3c21` [imiquimod], for which the “size of the tumor reduced compared to negative control (buffer)” value is reported as “about 39%”.

The values are drawn from patent US20240277754A1, “IMMUNO-ONCOLOGY THERAPEUTIC COMPOSITION USING ADJUVANT INCLUDING LIPOPEPTIDES AND POLY (I:C)” (CHA VACCINE RESEARCH INSTITUTE CO., LTD, priority 2021, published 2024).
